Experimental data published in ChEMBL document CHEMBL1145616, “Pyridyl-phenyl ether monoamine reuptake inhibitors: Impact of lipophilicity on dual SNRI pharmacology and off-target promiscuity” (Bioorg Med Chem Lett, 2008).
pIC50: −log10 of the molar value.

Assays:
[1] = biological target: Sodium-dependent noradrenaline transporter (Homo sapiens, UniProt P23975); test: Inhibition of [3H]NA uptake at human recombinant NA transporter expressed in HEK293 cells; type: cell-based
[2] = biological target: Sodium-dependent serotonin transporter (Homo sapiens, UniProt P31645); test: Inhibition of [3H]5-HT uptake at human recombinant 5HT transporter expressed in HEK293 cells; type: cell-based
[3] = biological target: Sodium-dependent dopamine transporter (Homo sapiens, UniProt Q01959); test: Inhibition of [3H]DA uptake at human recombinant DAT expressed in HEK293 cells; type: cell-based
[4] = Intrinsic clearance per 10^6 cells in human hepatocytes; type: ADME, cell-based, Liver, Hepatocyte
[5] = Intrinsic clearance in human liver microsomes; type: ADME, Microsome
[6] = biological target: Cytochrome P450 3A4 (Homo sapiens, UniProt P08684); test: Inhibition of CYP3A4; type: ADME
[7] = biological target: Cytochrome P450 2D6 (Homo sapiens, UniProt P10635); test: Inhibition of CYP2D6; type: ADME
Cytochrome P450 2D6, sequence (P10635 whole entry): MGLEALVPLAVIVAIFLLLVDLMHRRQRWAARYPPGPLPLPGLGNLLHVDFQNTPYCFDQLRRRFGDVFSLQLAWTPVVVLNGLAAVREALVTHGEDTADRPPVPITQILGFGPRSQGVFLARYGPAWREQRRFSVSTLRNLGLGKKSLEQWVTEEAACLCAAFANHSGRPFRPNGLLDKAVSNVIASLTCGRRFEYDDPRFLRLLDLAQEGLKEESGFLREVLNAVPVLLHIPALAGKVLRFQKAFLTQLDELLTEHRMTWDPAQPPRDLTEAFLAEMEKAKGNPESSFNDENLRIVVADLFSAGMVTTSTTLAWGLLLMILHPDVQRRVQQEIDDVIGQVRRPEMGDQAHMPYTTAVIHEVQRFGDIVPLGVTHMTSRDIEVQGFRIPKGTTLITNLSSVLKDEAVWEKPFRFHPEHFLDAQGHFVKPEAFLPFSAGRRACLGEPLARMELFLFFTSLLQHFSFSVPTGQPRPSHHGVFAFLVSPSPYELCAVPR

Sodium-dependent dopamine transporter, sequence (Q01959 whole entry): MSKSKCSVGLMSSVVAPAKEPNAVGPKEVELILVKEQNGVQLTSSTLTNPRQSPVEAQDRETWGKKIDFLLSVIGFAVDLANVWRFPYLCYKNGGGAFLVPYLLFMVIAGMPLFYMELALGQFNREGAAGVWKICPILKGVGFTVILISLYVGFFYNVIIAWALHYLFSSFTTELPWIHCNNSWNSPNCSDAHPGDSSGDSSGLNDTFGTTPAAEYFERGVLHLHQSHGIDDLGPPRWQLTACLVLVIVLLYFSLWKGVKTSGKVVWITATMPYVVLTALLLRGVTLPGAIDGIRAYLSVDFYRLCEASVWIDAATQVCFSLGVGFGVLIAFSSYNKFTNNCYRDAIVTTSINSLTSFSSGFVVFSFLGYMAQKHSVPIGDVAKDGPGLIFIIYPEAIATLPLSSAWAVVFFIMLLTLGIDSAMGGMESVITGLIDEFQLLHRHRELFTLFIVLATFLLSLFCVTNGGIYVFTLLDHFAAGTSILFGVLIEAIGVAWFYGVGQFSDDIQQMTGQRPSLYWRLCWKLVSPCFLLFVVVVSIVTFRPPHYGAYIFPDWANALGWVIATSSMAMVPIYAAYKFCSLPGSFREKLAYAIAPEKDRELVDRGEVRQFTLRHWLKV
Sodium-dependent noradrenaline transporter, sequence (P23975 whole entry): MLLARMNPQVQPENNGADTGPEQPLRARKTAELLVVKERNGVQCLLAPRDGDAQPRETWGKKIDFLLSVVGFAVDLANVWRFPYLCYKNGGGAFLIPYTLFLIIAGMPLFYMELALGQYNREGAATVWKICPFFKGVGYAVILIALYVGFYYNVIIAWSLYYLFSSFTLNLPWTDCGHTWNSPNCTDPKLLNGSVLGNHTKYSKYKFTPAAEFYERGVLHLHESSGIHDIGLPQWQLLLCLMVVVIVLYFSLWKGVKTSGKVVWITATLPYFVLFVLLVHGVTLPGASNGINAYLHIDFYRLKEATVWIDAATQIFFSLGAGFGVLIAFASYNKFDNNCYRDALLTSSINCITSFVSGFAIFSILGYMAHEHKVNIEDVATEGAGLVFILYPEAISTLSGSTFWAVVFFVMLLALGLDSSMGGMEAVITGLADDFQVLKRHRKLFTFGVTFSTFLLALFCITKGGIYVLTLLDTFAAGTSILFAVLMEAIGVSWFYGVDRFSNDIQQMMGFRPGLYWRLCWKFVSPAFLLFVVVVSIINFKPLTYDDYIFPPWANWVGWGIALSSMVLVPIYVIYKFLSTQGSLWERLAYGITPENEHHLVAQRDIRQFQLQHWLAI
Sodium-dependent serotonin transporter, sequence (P31645 whole entry): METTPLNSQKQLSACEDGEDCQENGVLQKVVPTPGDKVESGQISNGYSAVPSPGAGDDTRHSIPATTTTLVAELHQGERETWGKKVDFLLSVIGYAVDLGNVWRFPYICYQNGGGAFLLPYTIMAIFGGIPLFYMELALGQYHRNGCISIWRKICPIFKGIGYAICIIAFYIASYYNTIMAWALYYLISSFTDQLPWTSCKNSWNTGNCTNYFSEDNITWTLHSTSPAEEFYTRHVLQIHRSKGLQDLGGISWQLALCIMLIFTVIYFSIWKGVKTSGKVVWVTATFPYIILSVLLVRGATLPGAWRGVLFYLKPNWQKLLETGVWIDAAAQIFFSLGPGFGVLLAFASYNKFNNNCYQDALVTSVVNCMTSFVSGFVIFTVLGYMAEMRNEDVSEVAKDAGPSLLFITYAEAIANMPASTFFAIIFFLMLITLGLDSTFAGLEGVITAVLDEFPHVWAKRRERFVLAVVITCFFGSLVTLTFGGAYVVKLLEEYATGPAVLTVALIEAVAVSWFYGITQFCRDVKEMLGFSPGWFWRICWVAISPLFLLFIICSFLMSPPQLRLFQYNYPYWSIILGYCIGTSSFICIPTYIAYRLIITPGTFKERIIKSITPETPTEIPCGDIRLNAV
Cytochrome P450 3A4, sequence (P08684 whole entry): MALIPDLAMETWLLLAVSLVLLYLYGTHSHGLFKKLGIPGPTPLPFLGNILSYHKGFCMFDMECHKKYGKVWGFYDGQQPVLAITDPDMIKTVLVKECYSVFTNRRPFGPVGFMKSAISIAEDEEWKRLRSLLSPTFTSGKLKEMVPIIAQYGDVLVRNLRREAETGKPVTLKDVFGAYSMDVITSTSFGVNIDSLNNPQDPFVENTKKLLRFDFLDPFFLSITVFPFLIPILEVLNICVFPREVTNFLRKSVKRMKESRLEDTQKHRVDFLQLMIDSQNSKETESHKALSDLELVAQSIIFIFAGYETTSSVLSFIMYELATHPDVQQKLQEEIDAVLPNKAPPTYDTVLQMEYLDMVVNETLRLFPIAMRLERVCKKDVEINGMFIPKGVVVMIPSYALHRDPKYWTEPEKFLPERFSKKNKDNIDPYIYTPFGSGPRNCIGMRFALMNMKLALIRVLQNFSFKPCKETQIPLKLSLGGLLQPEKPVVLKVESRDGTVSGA

CNCc1cnc(C)cc1Oc1ccc(F)cc1C
pIC50 [1]: < 6.40 | pIC50 [2]: 6.64

COc1cc(Cl)ccc1Oc1ccncc1CN(C)C
pIC50 [1]: 7.33 | pIC50 [3]: 4.99 | pIC50 [2]: 8.22

CNCc1cnccc1Oc1ccc(Cl)cc1Cl
pIC50 [1]: 6.80 | pIC50 [2]: 7.41

CCOc1cc(Cl)ccc1Oc1ccncc1CNC
pIC50 [1]: 6.40 | pIC50 [2]: 7.62

CN(C)Cc1cnccc1Oc1ccc(Cl)cc1Cl
pIC50 [1]: 7.60 | pIC50 [3]: 5.61 | pIC50 [2]: 8.10

CCc1cc(Cl)ccc1Oc1ccncc1CN(C)C
pIC50 [1]: 7.74 | pIC50 [3]: < 4.42 | pIC50 [2]: 7.96

CNCc1cnc(C)cc1Oc1ccc(Cl)cc1OC
pIC50 [1]: 7.08 | pIC50 [2]: 8.40

CNCc1cc(C(=O)N(C)C)ccc1Oc1ccc(Cl)cc1OC
hepatocyte CLint [4]: 21 µL/min/1e6 cells | pIC50 [3]: < 5.40 | pIC50 [2]: 8.15

CNCc1cnccc1Oc1ccc(Cl)cc1Br
pIC50 [1]: 7.07 | pIC50 [2]: 7.64

COc1cc(Cl)ccc1Oc1cc(C)ncc1CN(C)C
hepatocyte CLint [4]: < 5 µL/min/1e6 cells | microsomal CLint [5]: < 7 µL/min/mg | pIC50 [6]: < 5.00 | pIC50 [1]: 7.59 | pIC50 [3]: 5.30 | pIC50 [7]: < 5.00 | pIC50 [2]: 7.89

Cc1cc(Oc2ccc(Cl)cc2C)c(CN(C)C)cn1
hepatocyte CLint [4]: < 5 µL/min/1e6 cells | microsomal CLint [5]: < 7 µL/min/mg | pIC50 [6]: < 5.00 | pIC50 [1]: 7.59 | pIC50 [3]: 5.77 | pIC50 [7]: < 5.00 | pIC50 [2]: 8.22

CCc1cc(Cl)ccc1Oc1cc(C)ncc1CNC
pIC50 [1]: 7.66 | pIC50 [3]: 4.47 | pIC50 [2]: 7.70

CCc1cc(Cl)ccc1Oc1cc(C)ncc1CN(C)C
pIC50 [1]: 7.52 | pIC50 [3]: < 4.47 | pIC50 [2]: 7.72

CNCc1cnccc1Oc1ccc(Cl)cc1C
pIC50 [1]: 6.61 | pIC50 [2]: 7.85

CNCc1cnc(C)cc1Oc1ccc(Cl)cc1C
pIC50 [1]: 7.29 | pIC50 [2]: 8.22

CNCc1cnc(C)cc1Oc1ccc(Cl)cc1Br
pIC50 [1]: 7.42 | pIC50 [2]: 8.00

CN(C)Cc1cnccc1Oc1ccc(Cl)cc1Br
pIC50 [1]: 7.59 | pIC50 [3]: 5.71 | pIC50 [2]: 8.40

CNCc1cnccc1Oc1ccc(Cl)cc1OC
pIC50 [1]: 6.55 | pIC50 [2]: 7.85

CNCc1cnc(C)cc1Oc1ccc(C)cc1OC
pIC50 [1]: 6.59 | pIC50 [2]: 7.74

Cc1cc(Cl)ccc1Oc1ccncc1CN(C)C
pIC50 [1]: 7.44 | pIC50 [3]: 5.49 | pIC50 [2]: 8.52

CCc1cc(Cl)ccc1Oc1ccncc1CNC
pIC50 [1]: 7.07 | pIC50 [2]: 7.34
